The target of experiment [1] is T1, human dopamine D2L receptor (Homo sapiens, UniProt P14416).
T1 construct: expressed in transfected cells; host or cells: CHO cells (frozen membranes)
The experiment in a line: In vitro assay for D2 receptor binding. Particulars: for IC50 / D2 (pIC50): membranes of human D2L-transfected CHO cells, [3H]Spiperone radioligand; for IC50: read-out: D2 (pIC50) (converted); for D2/NET: ratio of D2 pIC50 to NET-inhibition pIC50. As for the experimental part: Frozen membranes of human dopamine D2L receptor-transfected CHO cells were thawed, briefly homogenised using an Ultra-Turrax T25 homogeniser and diluted in Tris-HCl assay buffer containing NaCl, CaCl2, MgCl2, KCl (50, 120, 2, 1, and 5 mM respectively, adjusted to pH 7.7 with HCl) to an appropriate protein concentration optimised for specific and non-specific binding. Radioligand [^3H]Spiperone (NEN, specific activity ˜70 Ci/mmol) was diluted in assay buffer at a concentration of 2 nmol/L. Prepared radioligand (50 μl), along with 50 μl of either the 10% DMSO control, Butaclamol (10^−6 mol/l final concentration), or compound of interest, was then incubated (30 min, 37° C.) with 400 μl of the prepared membrane solution. Membrane-bound activity was filtered through a Packard Filtermate harvester onto GF/B Unifilterplates and washed with ice-cold Tris-HCl buffer (50 mM; pH 7.7; 6×0.5 ml). Filters were allowed to dry before adding scintillation fluid and counting in a Topcount scintillation counter. Percentage specific bound and competition binding curves were calculated using S-Plus software (Insightful).

Experiment [2] has as its target T2, human cloned 5-HT2C receptor (Homo sapiens, UniProt P28335).
T2 construct: expressed in transfected cells; host or cells: CHO cells
T2 sequence (P28335 33-458): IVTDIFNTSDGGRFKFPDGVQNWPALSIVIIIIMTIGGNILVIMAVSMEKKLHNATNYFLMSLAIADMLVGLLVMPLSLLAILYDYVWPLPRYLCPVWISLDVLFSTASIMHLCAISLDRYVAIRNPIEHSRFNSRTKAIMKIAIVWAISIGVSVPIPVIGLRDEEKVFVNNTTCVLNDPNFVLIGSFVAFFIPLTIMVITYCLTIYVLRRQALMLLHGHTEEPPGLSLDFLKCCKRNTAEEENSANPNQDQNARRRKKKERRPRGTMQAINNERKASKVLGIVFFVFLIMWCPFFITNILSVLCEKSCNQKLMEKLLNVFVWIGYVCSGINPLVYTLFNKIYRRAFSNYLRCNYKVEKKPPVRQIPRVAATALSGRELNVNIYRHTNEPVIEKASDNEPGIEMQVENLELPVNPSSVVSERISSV
Briefly: In vitro binding affinity for 5-HT2C receptor (radioligand binding). Particulars: human cloned 5-HT2C receptor expressed in CHO cells, [3H]mesulergine radioligand; read-out: 5-HT2C (pIC50) (converted). The method, then: (§1) The interaction of the compounds of Formula (I) with 5-HT2A and 5-HT2C receptors was assessed in in vitro radioligand binding experiments. In general, a low concentration of a radioligand with a high binding affinity for the receptor is incubated with a sample of a tissue preparation enriched in a particular receptor (1 to 5 mg tissue) in a buffered medium (0.2 to 5 ml). During the incubation, the radioligands bind to the receptor. When equilibrium of binding is reached, the receptor bound radioactivity is separated from the non-bound radioactivity, and the receptor bound activity is counted. The interaction of the test compounds with the receptors is assessed in competition binding experiments. Various concentrations of the test compound are added to the incubation mixture containing the tissue preparation and the radioligand. Binding of the radioligand will be inhibited by the test compound in proportion to its binding affinity and its concentration. The affinities of the compounds for the 5-HT2 receptors were measured by means of radioligand binding studies conducted with: (a) human cloned 5-HT2A receptor, expressed in L929 cells using [^125I]R91150 as radioligand and (b) human cloned 5-HT2C receptor, expressed in CHO cells using [^3H]mesulergine as radioligand.

Experiment [3] has as its target T3, norepinephrine transporter (NET) (Rattus norvegicus, UniProt Q63380).
T3 construct: Cortex from rat brain was collected and homogenised; from tissue; host or cells: rat brain cortex membranes
Briefly: In vitro assay for NET inhibition (radioligand binding, rat brain cortex). Particulars: rat brain cortex membranes, [3H]Nixosetine radioligand; for IC50: read-out: NET-inhibition (pIC50) (converted). The method, then: Cortex from rat brain was collected and homogenised using an Ultra-Turrax T25 and a Dual homogeniser in ice-cold homogenising buffer containing Tris, NaCl and KCl (50 mM, 120 mM and 5 mM, respectively, pH 7.4) prior to dilution to an appropriate protein concentration optimised for specific and non-specific binding. […] Membrane-bound activity was detected by filtration through a Packard Filtermate harvester onto GF/B Unifilterplates, washed with ice-cold Tris-HCl buffer, containing NaCl and KCl (50 mM, 120 mM and 4 mM; pH 7.4; 6×0.5 ml). Filters were allowed to dry for 24 h before adding scintillation fluid. Scintillation fluid was allowed to saturate filters for 24 h before counting in a Topcount scintillation counter. Percentage specific bound and competition binding curves were calculated using S-Plus software (Insightful).

Experiment [4] has as its target T4, human cloned 5-HT2A receptor (Homo sapiens, UniProt P28223).
T4 construct: expressed in transfected cells; host or cells: L929 cells
The experiment in a line: In vitro binding affinity for 5-HT2A receptor (radioligand binding). As to conditions: human cloned 5-HT2A receptor expressed in L929 cells, [125I]R91150 radioligand; read-out: 5-HT2A (pIC50) (converted). The method, then:
as §1

T1 sequence (P14416 whole entry): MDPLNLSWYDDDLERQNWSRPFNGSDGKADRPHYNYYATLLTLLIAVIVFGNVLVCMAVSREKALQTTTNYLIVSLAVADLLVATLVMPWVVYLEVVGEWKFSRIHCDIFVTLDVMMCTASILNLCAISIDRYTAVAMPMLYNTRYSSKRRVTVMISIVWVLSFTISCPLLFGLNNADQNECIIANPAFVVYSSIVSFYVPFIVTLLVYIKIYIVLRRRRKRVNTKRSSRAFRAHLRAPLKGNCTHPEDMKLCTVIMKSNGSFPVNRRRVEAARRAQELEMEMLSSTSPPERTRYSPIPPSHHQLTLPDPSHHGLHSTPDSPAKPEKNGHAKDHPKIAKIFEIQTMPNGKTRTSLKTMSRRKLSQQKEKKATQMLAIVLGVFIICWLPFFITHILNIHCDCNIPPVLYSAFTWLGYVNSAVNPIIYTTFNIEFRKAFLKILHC
T3 sequence (Q63380 1-617): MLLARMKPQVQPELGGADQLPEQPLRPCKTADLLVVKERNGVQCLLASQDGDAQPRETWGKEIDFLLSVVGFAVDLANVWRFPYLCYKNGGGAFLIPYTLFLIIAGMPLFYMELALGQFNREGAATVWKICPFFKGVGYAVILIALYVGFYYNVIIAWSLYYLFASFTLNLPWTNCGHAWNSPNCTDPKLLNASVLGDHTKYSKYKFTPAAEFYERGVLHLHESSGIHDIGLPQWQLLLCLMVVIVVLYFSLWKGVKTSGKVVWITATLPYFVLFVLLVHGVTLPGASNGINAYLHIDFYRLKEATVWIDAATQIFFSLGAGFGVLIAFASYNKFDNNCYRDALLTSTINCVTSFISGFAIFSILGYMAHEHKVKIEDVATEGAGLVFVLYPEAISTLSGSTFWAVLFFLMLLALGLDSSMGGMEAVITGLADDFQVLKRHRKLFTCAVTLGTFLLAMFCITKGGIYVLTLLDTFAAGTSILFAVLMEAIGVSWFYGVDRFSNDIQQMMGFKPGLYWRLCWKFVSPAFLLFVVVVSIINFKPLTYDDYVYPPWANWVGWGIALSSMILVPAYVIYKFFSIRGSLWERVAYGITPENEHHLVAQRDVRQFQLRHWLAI
T4 sequence (P28223 whole entry): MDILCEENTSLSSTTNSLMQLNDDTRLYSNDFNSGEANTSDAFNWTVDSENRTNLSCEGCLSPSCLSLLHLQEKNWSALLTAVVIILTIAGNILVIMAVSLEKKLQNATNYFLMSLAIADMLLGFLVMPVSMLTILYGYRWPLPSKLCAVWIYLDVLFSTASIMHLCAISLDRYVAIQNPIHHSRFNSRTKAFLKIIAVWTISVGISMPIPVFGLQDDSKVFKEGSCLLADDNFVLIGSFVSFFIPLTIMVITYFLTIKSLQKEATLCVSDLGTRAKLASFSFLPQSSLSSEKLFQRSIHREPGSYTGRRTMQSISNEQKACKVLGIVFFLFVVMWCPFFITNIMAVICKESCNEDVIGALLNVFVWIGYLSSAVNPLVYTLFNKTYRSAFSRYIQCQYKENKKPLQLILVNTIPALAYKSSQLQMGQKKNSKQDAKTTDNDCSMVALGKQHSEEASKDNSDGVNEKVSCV

As for `CNC[C@@H]1C[C@H]2c3ccccc3C(C)c3ccc(F)cc3[C@@H]2O1` (mixture of isomers) [Compound 99], the IC50 was greater than 10000 nM in experiment [1], 200 nM in experiment [2] and 63.1 nM in experiment [3]. Besides, the D2/NET in experiment [1] is given as less than 0.69.

In the case of `CNC[C@H]1C[C@H]2c3cc(F)ccc3C(C)c3ccccc3[C@@H]2O1` (mixture of isomers) [Compound 102], the IC50 was 7940 nM in experiment [1], 50.1 nM in experiment [2] and 31.6 nM in experiment [3]. In addition, the D2/NET in experiment [1] stood at 0.68.

Take `CCNC[C@H]1C[C@@H]2c3ccccc3[C@@H](O)c3ccc(F)cc3[C@H]2O1` (relative stereo) [Compound 106]: the IC50 in experiment [4] was 20 nM; in experiment [1], 1260 nM; in experiment [2] it was 5.01 nM; in experiment [3], 3.98 nM. In addition, in experiment [1], the D2/NET is given as 0.67.

Take `C=C1c2ccccc2C2CC(CN(C)C)OC2c2ccccc21` (single isomer, unassigned) [Compound 24]: the IC50 is 158 nM in experiment [4], greater than 10000 nM in experiment [1], 25.1 nM in experiment [2] and 20 nM in experiment [3]. The D2/NET in experiment [1] is on record as less than 0.65.

As for `CNCC1CC2c3ccccc3C(C)c3ccc(F)cc3C2O1` (single isomer, unassigned) [Compound 73], the IC50 is 2 nM in experiment [4], 63.1 nM in experiment [1], 2 nM in experiment [2] and 39.8 nM in experiment [3]. In addition, in experiment [1], the D2/NET is on record as 0.96.

For `C=C1c2ccc(F)cc2C2CC(CNC)OC2c2ccccc21` (single isomer, unassigned) [Compound 93], the D2/NET in experiment [1] was 0.73. The IC50 is 3.98 nM in experiment [2] and 6.31 nM in experiment [3].

Regarding `C=C1c2ccc(F)cc2C2CC(CNC)OC2c2ccccc21` (single isomer, unassigned) [Compound 94], in experiment [1], the IC50 was 5010 nM and the D2/NET is 0.65. Moreover, the IC50 in experiment [2] was 20 nM. Besides, the “NET-inhibition (pIC50)” value in experiment [3] stood at 8.2.

`CNCC1CC2c3ccccc3C(C)c3ccc(F)cc3C2O1` (single isomer, unassigned) [Compound 100]: the IC50 in experiment [1] was greater than 10000 nM; in experiment [2], 158 nM; in experiment [3], 7.94 nM. For the same compound, the D2/NET in experiment [1] is less than 0.62.

For `CNCC1CC2c3cc(F)ccc3C(C)(O)c3ccccc3C2O1` (single isomer, unassigned) [Compound 114], in experiment [1], the “D2 (pIC50)” value is on record as less than 5 and the D2/NET was less than 0.83. Further, in experiment [2], the IC50 is 1000 nM. In addition, in experiment [3], the IC50 was 631 nM.

For the compound `CNCC1CC2c3cc(F)ccc3C(C)(O)c3ccccc3C2O1` (single isomer, unassigned) [Compound 115], the IC50 in experiment [1] is greater than 10000 nM; in experiment [2], 1580 nM; in experiment [3], 1260 nM. In experiment [1], the D2/NET was less than 0.85.

For `CCNCC1CC2c3ccccc3C(C)(O)c3ccc(F)cc3C2O1` (single isomer, unassigned) [Compound 118], the IC50 was 2000 nM in experiment [1], 100 nM in experiment [2] and 631 nM in experiment [3]. The D2/NET in experiment [1] is reported as 0.91.

As for `CCNCC1CC2c3ccccc3C(C)(O)c3ccc(F)cc3C2O1` (single isomer, unassigned) [Compound 119], the D2/NET in experiment [1] worked out at 0.67. The IC50 in experiment [2] was 20 nM; in experiment [3], 31.6 nM.

As for `CNCC1CC2c3ccccc3C(C)(O)c3ccc(F)cc3C2O1` (single isomer, unassigned) [Compound 124], the “D2 (pIC50)” value in experiment [1] was less than 5. Further, the D2/NET in experiment [1] is given as less than 0.77. Besides, the IC50 was 6310 nM in experiment [2] and 316 nM in experiment [3].

Consider `CNCC1CC2c3ccccc3C(C)(O)c3ccc(F)cc3C2O1` (single isomer, unassigned) [Compound 125], for which the IC50 was greater than 10000 nM in experiment [1], 6310 nM in experiment [2] and 2000 nM in experiment [3]. Besides, the D2/NET in experiment [1] is listed as less than 0.88.

Turning to `CNCC1CC2c3ccccc3C(C)(O)c3ccc(F)cc3C2O1` (single isomer, unassigned) [Compound 126], in experiment [1], the “D2 (pIC50)” value is less than 5 and the D2/NET is on record as less than 0.69. In experiment [2], the IC50 was 501 nM. Besides, the IC50 in experiment [3] is 63.1 nM.

Take `CN(C)C[C@H]1C[C@@H]2c3ccccc3C(=O)c3ccc(F)cc3[C@H]2O1` [Compound 12]: the IC50 in experiment [4] was 63.1 nM; in experiment [1] it was greater than 1000 nM; in experiment [2], 79.4 nM; in experiment [3], 63.1 nM. In experiment [1], the D2/NET is listed as less than 0.83.

With `COc1ccc2c(c1)[C@H]1O[C@@H](CN(C)C)C[C@@H]1c1ccccc1C2=O` [Compound 16], the D2/NET in experiment [1] amounted to 0.95. For the same compound, the IC50 in experiment [2] is 50.1 nM; in experiment [3] it was 501 nM.

With `C=C1c2ccc(F)cc2C2CC(CN(C)C)OC2c2cc(F)ccc21` (centres unmarked) [Compound 29], the results for the IC50 in experiment [1], in experiment [2] and in experiment [3] were greater than 1000 nM, 12.6 nM and 5.01 nM, respectively. The D2/NET in experiment [1] is given as less than 0.72.

For `COC1c2ccccc2[C@H]2C[C@H](CN(C)C)O[C@@H]2c2cc(F)ccc21` (some centres unmarked) [Compound 60], the results for the IC50 in experiment [1], in experiment [2] and in experiment [3] were 3980 nM, 39.8 nM and 126 nM, respectively. Further, the D2/NET in experiment [1] was 0.79.

For the compound `CC1c2ccc(F)cc2C2CC(CN(C)C)OC2c2cc(F)ccc21` (centres unmarked) [Compound 77], the results for the IC50 in experiment [1], in experiment [2] and in experiment [3] were greater than 1000 nM, 50.1 nM and 31.6 nM, respectively. The D2/NET in experiment [1] is less than 0.80.

Take `C[C@@H]1c2ccccc2[C@H]2C[C@H](CN(C)C)O[C@@H]2c2cc(N(C)C)ccc21` [Compound 78]: the values for the IC50 in experiment [1], in experiment [2] and in experiment [3] were 2000 nM, 100 nM and 398 nM, respectively. Besides, the D2/NET in experiment [1] was found to be 0.88.

Regarding `C=C1c2ccccc2[C@@H]2C[C@@H](CNC)O[C@H]2c2cc(F)ccc21` [Compound 95], the IC50 in experiment [1] was 6310 nM; in experiment [2] it was 50.1 nM; in experiment [3], 15.8 nM. In addition, the D2/NET in experiment [1] was 0.67.

For `CNC[C@H]1C[C@@H]2c3cc(F)ccc3[C@@H](C)c3ccccc3[C@H]2O1` [Compound 101], the IC50 in experiment [1] was 3980 nM; in experiment [2], 20 nM; in experiment [3] it was 15.8 nM. Besides, the D2/NET in experiment [1] is reported as 0.69.

On to `OC1c2ccccc2C2CC(CNCc3ccccc3)OC2c2cc(F)ccc21` (centres unmarked) [Compound 109], for which the values for the IC50 in experiment [1], in experiment [2] and in experiment [3] were greater than 10000 nM, 12.6 nM and 3980 nM, respectively. Also, in experiment [1], the D2/NET is less than 0.92.

As for `COC1c2ccccc2C2CC(CNCc3ccccc3)OC2c2cc(F)ccc21` (centres unmarked) [Compound 111], the IC50 in experiment [1] was 3160 nM; in experiment [2] it was 79.4 nM; in experiment [3] it was 2000 nM. Also, the D2/NET in experiment [1] is 0.96.

The values are drawn from patent publication US20070197525A1, “Novel tetracyclic tetrahydrofuran derivatives” (priority 2004, published 2007).
